Some results are limits rather than exact numbers.

Usually IC50 stands for the midpoint of a concentration-inhibition curve.

For this assay, the system named is 3T3/H-Ras (NIH 3T3 clone 7 cells expressing genomic fragment of oncogenic H-Ras). The assay can be described thus: Growth of NIH 3T3 cells over expressing H-Ras (SRB). The following applies: Mus musculus, NIH3T3, 72 h, growth of 3T3/H-Ras cells, 3 days with compound. In kind it is cell-based. The protocol:
The following assay measures growth rates for NIH-3T3 cells expressing RAS. The purpose of the assay is to determine the effects of compounds on the growth of NIH 3T3 cells over expressing H-Ras.
• 96-well flat bottom sterile plates • 96-well round bottom sterile plates • sterile 25 mL or 100 mL reservoir • pipets, multi-channel pipetman • sterile pipet tips • sterile 15 mL and 50 mL tubes Reagents • 0.4% SRB in 1% acetic acid • 10 mM Tris base • 10% TCA • 1% acetic acid • sterile DMSO (Sigma) • compound in DMSO (100 mM or less stock solution) • Trypsin-EDTA (GIBCO BRL) Cell Line: 3T3/H-Ras (NIH 3T3 clone 7 cells expressing genomic fragment of oncogenic H-Ras).
The cells can be constructed using the following protocol: • 1. Subclone a gene fragment encoding Ras into a commercially available vector that will stably transfect NIH-3T3 cells. The fragment is from the genomic transforming allele of cHa-ras. • 2. Transfect NIH-3T3 cells with the subcloned vector by a calcium phosphate method. Select cells expressing the Ras construct in 2% serum in DMEM. Visible foci are observed after 2 weeks. Pool the transformed cells to generate a stably transformed cell line. Growth Medium: 2% calf serum/DMEM+2 mM glutamine, Pen/Strep Protocol: Day 0: Cell Plating:
This part of assay is carried out in a laminar flow hood. • 1. Trypsinize cells. Transfer 200 μL of cell suspension to 10 mL of isotone. Count cells with a Coulter Counter. • 2. Dilute cells in growth medium to 60,000 cell/mL. Transfer 100 μL of cells to each well in a 96-well flat bottom plate to give 6000 cells/well. • 3. Use half of plate (4 rows) for each comound and quadruplicate wells for each compound concentration, and a set of 4 wells for medium control. • 4. Gently shake plates to allow for uniform attachment of the cells. • 5. Incubate the plates at 37° C. in a 10% CO2 incubator. Day 1: Addition of Compound:
This part of assay is carried out in a laminar flow hood. • 1. In a 96-well round bottom plate, add 120 μL of growth medium containing 2×final % DMSO found in highest screening concentration of compound to columns 1 to 11. For example, if the highest concentration is […], and this is made from a 100 mM stock, 1×DMSO is 0.1%, so 2×DMSO is 0.2%. This plate is used to titrate out the compound, 4 rows per compound. • 2. In a sterile 15 mL tube, make a 2×solution of the highest screening concentration of compound in growth medium plus 2×DMSO. 1 mL per cell line is needed. The starting concentration of the compound is usually 100 μM but this concentration may vary depending upon the solubility of the compound. • 3. Transfer 240 μL of the 2×starting compound solution to qudruplicate wells in column 12 of the 96-well round bottom plate. Do 1:2 serial dilutions across the plate from right to left by transferring […] from column 12 to column 11, column 11 to 10 and so on through column 2. Transfer 100 μL of compound dilutions, and 100 μL of medium in column 1, onto 100 μL medium on cells in corresponding wells of 96-well flat bottom plate. Total volume per well should be 200 μL. • 4. Return the plate to the incubator and incubate for 3 days. Day 4: Development of Assay
This party of assay is carried out on the bench. • 1. Aspirate or pour off medium. Add 200 μL cold 10% TCA to each well to fix cells. Incubate plate for at least 60 min. at 4° C. • 2. Discard TCA and rinse wells 5 times with tap water. Dry plates upside down on paper towels. • 3. Stain cells with 100 μL/well 0.4% SRB for 10 min. • 4. Pour of SRB and rinse wells 5 times with 1% acetic acid. Dry plates completely upside down on paper towels. • 5. Solubilize dye with 100 μL/well 10 mM Tris base for 5-10 min. on shaker. • 6. Read plates on Dynatech ELISA Plate REader at 570 nm with reference at 630 nm.
On to `COc1ccc(Oc2cccc3nc(N)nc(N)c23)cc1` [Compound A-6, 2,4-Diamino-5-(4-methoxyphenoxy)quinazoline], for which the IC50 was over 100 µM.

For `Nc1nc(N)c2c(Oc3ccc(F)cc3)cccc2n1` [Compound A-7, 2,4-Diamino-5-(4-fluorophenoxy)quinazoline], the IC50 is over 100 µM.

Turning to `Nc1nc(N)c2c(Oc3ccccc3)cccc2n1` [Compound A-1, 2,4-Diamino-5-phenoxyquinazoline], the concentration for half-maximal inhibition (IC50) worked out at 0.85 µM.

With `Cc1ccc(Oc2cccc3nc(N)nc(N)c23)cc1` [Compound A-9, 2,4-Diamino-5-(4-methylphenoxy)quinazoline], the IC50 was 20.4 µM.

In the case of `CC(C)(C)c1ccc(Oc2cccc3nc(N)nc(N)c23)cc1` [Compound A-8, 2,4-Diamino-5-(4-tert-butylphenoxy)quinazoline], the IC50 amounted to 22.3 µM.

Consider `COc1cccc(Oc2cccc3nc(N)nc(N)c23)c1` [Compound A-23, 2,4-Diamino-5-(3-methoxyphenoxy)quinazoline], for which the IC50 was 0.6 µM.

Take `Nc1ncnc2cccc(Oc3ccc(OCc4ccccc4)cc3)c12` [Compound A-28, 4-Amino-5-(4-benzyloxyphenoxy)quinazoline]: the IC50 came to 6 µM.

Take `COc1ccccc1Oc1cccc2nc(N)nc(N)c12` [Compound A-22, 2,4-Diamino-5-(2-methoxyphenoxy)quinazoline]: the IC50 stood at 0.4 µM.

Values taken from patent US6911446B2, “Methods of modulating serine/threonine protein kinase function with quinazoline-based compounds” (Sugen, Inc., priority 1997, dated 2005).
